Target: T1, p38α kinase (Homo sapiens, UniProt Q16539)
T1 construct: purchased Upstate
Experiment: p38α assay (ADP release coupled to NADH oxidation)
Format: biochemical
Conditions: 60 min preincubation, 0.15 mM ATP, 20 nM p38α kinase
Protocol: cDNAs of human p38α and β were cloned by PCR. The α and β cDNAs were subcloned into DEST2 plasmid (Gateway, InVitrogen). His6-p38 fusion protein was expressed in E. coli and purified from bacterial lysates by affinity chromatography using Ni^+2-NTA-agarose. His6-p38 protein was activated by incubating with constitutively active MKK6. Active p38 was separated from MKK6 by affinity chromatography. Constitutively active MKK6 was generated in a manner similar to Raingeaud et al. [Mol. Cell. Biol., 1247-1255 (1996)].
The p38α assay employed is based on measurement of ADP released in the reaction of interest through NADH oxidation obtained by coupling with pyruvate kinase and lactate dehydrogenase reactions. The assays were performed in 384-well UV-plates. The final volume was 25 μL prepared from the addition of 2.5 μL compound dissolved in 10% DMSO, 17.5 μL of assay buffer and 5 μL of ATP. Assay buffer contains the following reagents to give final concentration in the assay: 25 mM HEPES, 20 mM 2-glycerophosphate, pH 7.6, 10 mM MgCl2, 0.1 mM sodium orthovanadate, 0.5 mM phosphoenolpyruvate, 0.12 mM NADH, 3.1 mg/ml LDH, 6.67 mg/ml pyruvate kinase, 0.25 mM peptide substrate, 2 mM DTT, 0.005% Tween 80 and 20 nM p38α kinase from Upstate. Test compounds are preincubated zith p38α kinase for 60 min and the reaction started by addition of ATP to 0.15 mM final concentration. Reaction rates were measured at 340 nm using SpectraMax plate-reading spectrophotometer for 10 min at 37° C. Inhibition data were analyzed by non-linear least-squares regression using SigmaPlot.

T1 sequence (Q16539 whole entry): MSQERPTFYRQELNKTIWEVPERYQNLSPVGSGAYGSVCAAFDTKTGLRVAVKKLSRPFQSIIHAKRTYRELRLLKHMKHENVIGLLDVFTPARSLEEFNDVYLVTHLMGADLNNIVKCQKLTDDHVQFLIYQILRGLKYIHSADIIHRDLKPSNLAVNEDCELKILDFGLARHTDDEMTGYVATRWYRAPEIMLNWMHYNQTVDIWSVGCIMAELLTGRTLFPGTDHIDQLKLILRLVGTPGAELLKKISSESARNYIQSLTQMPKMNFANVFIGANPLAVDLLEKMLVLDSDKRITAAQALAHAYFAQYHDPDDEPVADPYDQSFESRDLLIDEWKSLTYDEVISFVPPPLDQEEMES

Structure (SMILES) | IC50
CONC(=O)c1ccc(C)c(-n2ncc(C(=O)c3cccc(I)c3)c2N)c1 [Example 1, 3-[5-Amino-4-(3-iodo-benzoyl)-pyrazol-1-yl]-N-methoxy-4-methyl-benzamide] | < 1000 nM
CONC(=O)c1ccc(C)c(-n2ncc(C(=O)c3ccccc3)c2N)c1 [Example 2, 3-(5-Amino-4-benzoyl-pyrazol-1-yl)-N-methoxy-4-methyl-benzamide] | < 1000 nM
Cc1ccc(C(=O)O)cc1-n1ncc(C(=O)c2ccccc2)c1N [Example 3, 3-(5-amino-4-benzoyl-pyrazol-1-yl)-4-methyl-benzoic acid] | 1000 to 10000 nM
Cc1ccc(C(=O)NC2CC2)cc1-n1ncc(C(=O)c2ccccc2)c1N [Example 4, 3-(5-amino-4-benzoyl-pyrazol-1-yl)-N-cyclopropyl-4-methyl-benzamide] | < 1000 nM
Cc1ccc(C(=O)O)cc1-n1ncc(C(=O)c2cccc(I)c2)c1N [Example 5, 3-[5-amino-4-(3-iodo-benzoyl)-pyrazol-1-yl]-4-methyl-benzoic acid] | 1000 to 10000 nM
Cc1ccc(C(=O)NC2CC2)cc1-n1ncc(C(=O)c2cccc(I)c2)c1N [Example 6, 3-[5-amino-4-(3-iodo-benzoyl)-pyrazol-1-yl]-N-cyclopropyl-4-methyl-benzamide] | < 1000 nM
Cc1ccc(-c2nnc[nH]2)cc1-n1ncc(C(=O)c2ccccc2)c1N [Example 7, {5-amino-1-[2-methyl-5-(4H-[1,2,4]triazol-3-yl)-phenyl]-1H-pyrazol-4-yl}-phenyl-methanone] | < 1000 nM
Cc1ccc(C(=O)NC2CC2)cc1-n1ncc(C(=O)c2cccc(C3OCCO3)c2)c1N [Example 8, 3-[5-amino-4-(3-[1,3]dioxolan-2-yl-benzoyl)-pyrazol-1-yl]-N-cyclopropyl-4-methyl-benzamide] | < 1000 nM
Cc1ccc(C(=O)NC2CC2)cc1-n1ncc(C(=O)c2cccc(C=O)c2)c1N [Example 9, 3-[5-amino-4-(3-formyl-benzoyl)-pyrazol-1-yl]-N-cyclopropyl-4-methyl-benzamide] | < 1000 nM
Cc1ccc(C(=O)NC2CC2)cc1-n1ncc(C(=O)c2cccc(CO)c2)c1N [Example 10, 3-[5-amino-4-(3-hydroxymethyl-benzoyl)-pyrazol-1-yl]-N-cyclopropyl-4-methyl-benzamide] | < 1000 nM
Cc1ccc(C(=O)NC2CC2)cc1-n1cnc(C(=O)C2CCCCC2)c1N [Example 18, 3-(5-Amino-4-cyclohexanecarbonyl-imidazol-1-yl)-N-cyclopropyl-4-methyl-benzamide] | < 1000 nM
Cc1ccc(C(=O)NC2CC2)cc1-n1cnc(C(=O)C2CCOCC2)c1N [Example 29, 3-[5-Amino-4-(tetrahydro-pyran-4-carbonyl)-imidazol-1-yl]-N-cyclopropyl-4-methyl-benzamide] | < 1000 nM
COc1nn(-c2cc(C(=O)NC3CC3)ccc2C)c(N)c1C(=O)c1ccccc1 [Example 30, 3-(5-amino-4-benzoyl-3-methoxy-pyrazol-1-yl)-N-cyclopropyl-4-methyl-benzamide] | < 1000 nM
Cc1ccc(C(=O)NC2CC2)cc1-n1nc(OCCOCc2ccccc2)c(C(=O)c2ccccc2)c1N [Example 33, 3-[5-amino-4-benzoyl-3-(2-benzyloxy-ethoxy)-pyrazol-1-yl]-N-cyclopropyl-4-methyl-benzamide] | < 1000 nM
Cc1ccc(C(=O)NC2CC2)cc1-n1nc(OC2CCN(C(=O)OC(C)(C)C)CC2)c(C(=O)c2ccccc2)c1N [Example 34, 4-[5-amino-4-benzoyl-1-(5-cyclopropylcarbamoyl-2-methyl-phenyl)-1H-pyrazol-3-yloxy]-piperidine-1-carboxylic acid tert-butyl ester] | < 1000 nM
CCOC(=O)c1cnn(-c2cc(C(=O)NC3CC3)ccc2C)c1N [Example 48, 5-Amino-1-(5-cyclopropylcarbamoyl-2-methyl-phenyl)-1H-pyrazole-4-carboxylic acid ethyl ester] | < 1000 nM
CCOC(=O)c1c(C)nn(-c2cc(C(=O)NC3CC3)ccc2C)c1N [Example 49, 5-Amino-1-(5-cyclopropylcarbamoyl-2-methyl-phenyl)-3-methyl-1H-pyrazole-4-carboxylic acid ethyl ester] | < 1000 nM
CCOC(=O)c1c(OCC(=O)NCc2cccc(Cl)c2)nn(-c2cc(C(=O)NC3CC3)ccc2C)c1N [Example 50, 5-Amino-3-[(3-chloro-benzylcarbamoyl)-methoxy]-1-(5-cyclopropylcarbamoyl-2-methyl-phenyl)-1H-pyrazole-4-carboxylic acid ethyl ester] | < 1000 nM
Cc1ccc(C(=O)NC2CC2)cc1-n1ncc(C(=O)c2cccc(C#N)c2)c1N [Example 52, 3-[5-Amino-4-(3-cyanobenzoyl)-pyrazol-1-yl]-N-cyclopropyl-4-methylbenzamide] | < 1000 nM
Cc1ccc(C(=O)NC2CC2)cc1-n1ncc(C(=O)c2cccc(-c3nnco3)c2)c1N [Example 53, 3-[5-Amino-4-(3-[1,3,4]oxadiazol-2-yl-benzoyl)-pyrazol-1-yl]-N-cyclopropyl-4-methylbenzamide] | < 1000 nM
Cc1ccc(C(=O)NC2CC2)cc1-n1cnc(C(=O)c2ccccn2)c1N [Example 76, 3-[5-Amino-4-(pyridine-2-carbonyl)-imidazol-1-yl]-N-cyclopropyl-4-methyl-benzamide] | < 1000 nM
Cc1ccc(C(=O)NC2CC2)cc1-n1cnc(C(=O)c2ccc3c(c2)OCO3)c1N [Example 87, 3-[5-Amino-4-(benzo[1,3]dioxole-5-carbonyl)-imidazol-1-yl]-N-cyclopropyl-4-methyl-benzamide] | < 1000 nM
Cc1ccc(C(=O)NC2CC2)cc1-n1ncc(C(=O)NC2CCCCC2C)c1N (stereo not shown) [Example 128, 5-Amino-1-(5-cyclopropylcarbamoyl-2-methyl-phenyl)-1H-pyrazole-4-carboxylic acid (2-methyl-cyclohexyl)-amide] | < 1000 nM
Cc1ccc(C(=O)NC2CC2)cc1-n1ncc(C(=O)NC2CCc3ccccc32)c1N (stereo not shown) [Example 135, 5-Amino-1-(5-cyclopropylcarbamoyl-2-methyl-phenyl)-1H-pyrazole-4-carboxylic acid indan-1-ylamide] | < 1000 nM
Cc1ccc(C(=O)NC2CC2)cc1-n1ncc(C(=O)c2cccc(OCC(O)CO)c2)c1N (stereo not shown) [Example 171, 3-{5-Amino-4-[3-(2,3-dihydroxy-propoxy)-benzoyl]-pyrazol-1-yl}-N-cyclopropyl-4-methylbenzamide] | < 1000 nM
